The test deals with M. catarrhalis A894. As to the kind of experiment: MIC determination by microdilution in cation-adjusted Mueller-Hinton Broth (NCCLS). Format: cell-based. Particulars: pH of the test medium 7.2-7.3; for MIC: Moraxella catarrhalis, A894, microdilution method; for MIC M. catarrhalis A894: microdilution method. The method, then: These assays have been performed following the description given in “Methods for dilution Antimicrobial Susceptibility Tests for Bacteria that Grow Aerobically, 4th ed.; Approved standard: NCCLS Document M7-A4; National Committee for Clinical Laboratory Standards: Villanova, Pa., USA, 1997”. Minimal inhibitory concentrations (MICs; mg/l) were determined in cation-adjusted Mueller-Hinton Broth by a microdilution method following NCCLS guidelines (National Committee for Clinical Laboratory Standards. Methods for Dilution Antimicrobial Susceptibility). The pH of the test medium was 7.2-7.3. All Example compounds were tested against several Gram positive and Gram negative bacteria such as S. aureus, E. faecalis, S. pneumoniae, M. catarrhalis or E.coli.

Structures are written as SMILES. Converted amounts (≈) assume the structure as drawn. Where only a bound is given, the exact number is not on record here.

As usually defined, the MIC is the lowest concentration that inhibits growth of the organism. Higher therefore signals weaker potency.

Regarding `COc1ccc2ccc3c(c2n1)C(CN1CCC(NCc2cc4c(cn2)OCCO4)CC1)CO3` (racemic) [Example 2, rac-(2,3-dihydro-[1,4]dioxino[2,3-c]pyridin-7-ylmethyl)-[1-(2-methoxy-8,9-dihydro-furo[2,3-h]quinolin-9-ylmethyl)-piperidin-4-yl]-amine], the MIC is no more than 0.031 µg/mL.
Same read-out and setting: with `COc1ccc2ccc3c(c2n1)C(CN1CCC(NCc2cc4c(nn2)OCCO4)CC1)CO3` (racemic) [Example 3, rac-(6,7-dihydro-[1,4]dioxino[2,3-c]pyridazin-3-ylmethyl)-[1-(2-methoxy-8,9-dihydro-furo[2,3-h]quinolin-9-ylmethyl)-piperidin-4-yl]-amine] the figure was no more than 0.031 µg/mL; with `COc1ccc2ccc3c(c2n1)C(CN1CCC(NCc2ccc4c(n2)NC(=O)CS4)CC1)CO3` (racemic) [Example 4, rac-6-{[1-(2-methoxy-8,9-dihydro-furo[2,3-h]quinolin-9-ylmethyl) -piperidin-4-ylamino]-methyl}-4H-pyrido[3,2-b][1,4]thiazin-3-one], no more than 0.031 µg/mL; with `COc1ccc2ccc3c(c2n1)C(CN1CCC(NCc2ccc4c(n2)NC(=O)CO4)CC1)CO3` (racemic) [Example 5, rac-6-{[1-(2-methoxy-8,9-dihydro-furo[2,3-h]quinolin-9-ylmethyl) -piperidin-4-ylamino]-methyl}-4H-pyrido[3,2-b][1,4]oxazin-3-one], no more than 0.031 µg/mL.
On the same count and under the same terms, then `COc1ccc2ncc3c(c2n1)C(CN1CCC(NCc2ccc4c(n2)NC(=O)CO4)CC1)CO3` (racemic) [Example 6, rac-6-{[1-(8-methoxy-1,2-dihydro-3-oxa-5,9-diaza-cyclopenta[a]naphthalen-1-ylmethyl)-piperidin-4-ylamino]-methyl}-4H-pyrido[3,2-b][1,4]oxazin-3-one], with no more than 0.031 µg/mL.
As for `COc1ccc2ncc3c(c2n1)C(CN1CCC(NCc2ccc4c(n2)NC(=O)CS4)CC1)CO3` (racemic) [Example 7, rac-6-{[1-(8-methoxy-1,2-dihydro-3-oxa-5,9-diaza-cyclopenta[a]naphthalen-1-ylmethyl)-piperidin-4-ylamino]-methyl}-4H-pyrido[3,2-b][1,4]thiazin-3-one], the MIC was no more than 0.031 µg/mL.
Take `COc1ccc2ncc3c(c2n1)C(CN1CCC(NCc2cc4c(nn2)OCCO4)CC1)CO3` (racemic) [Example 8, rac-(6,7-dihydro-[1,4]dioxino[2,3-c]pyridazin-3-ylmethyl)-[1-(8-methoxy-1,2-dihydro-3-oxa-5,9-diaza-cyclopenta[a]naphthalen-1-ylmethyl) -piperidin-4-yl]-amine]: the MIC was no more than 0.031 µg/mL.
Molecule `COc1ccc2ncc3c(c2n1)C(CN1CCC(NCc2cc4c(cn2)OCCO4)CC1)CO3` (racemic) [Example 9, rac-(2,3-dihydro-[1,4]dioxino[2,3-c]pyridin-7-ylmethyl)-[1-(8-methoxy-1,2-dihydro-3-oxa-5,9-diaza-cyclopenta[a]naphthalen-1-ylmethyl)-piperidin-4-yl]-amine] registered an MIC of no more than 0.031 µg/mL.
In the case of `COc1ccc2ncc3c(c2n1)C(CN1CCC(NCc2ccc4c(c2)OCCO4)CC1)CO3` (racemic) [Example 10, rac-(2,3-dihydro-benzo[1,4]dioxin-6-ylmethyl)-[1-(8-methoxy-1,2-dihydro-3-oxa-5,9-diaza-cyclopenta[a]naphthalen-1-ylmethyl)-piperidin-4-yl]-amine], the MIC is no more than 0.031 µg/mL.
The same measure, in the same setting: then `COc1ccc2ccc3c(c2n1)C(CN1CCC(NCc2ccc4c(n2)OCCO4)CC1)CO3` (racemic) [Example 11, rac-(2,3-dihydro-[1,4]dioxino[2,3-b]pyridin-6-ylmethyl)-[1-(2-methoxy-8,9-dihydro-furo[2,3-h]quinolin-9-ylmethyl)-piperidin-4-yl]-amine], with 0.125 µg/mL (≈ 0.27 µM); and `COc1ccc2ccc3c(c2n1)C(CN1CCC(NCc2ccc4c(c2)NC(=O)CO4)CC1)CO3` (racemic) [Example 15, rac-6-{[1-(2-methoxy-8,9-dihydro-furo[2,3-h]quinolin-9-ylmethyl) -piperidin-4-ylamino]-methyl}-4H-benzo[1,4]oxazin-3-one], with no more than 0.031 µg/mL.
For `COc1ccc2ncc3c(c2n1)C(CN1[C@@H]2CC[C@H]1C[C@H](NCc1cc4c(cn1)OCCO4)C2)CO3` (mixture of isomers) [Example 20, (2,3-dihydro-[1,4]dioxino[2,3-c]pyridin-7-ylmethyl) -[(3-exo)-8-((1RS)-8-methoxy-1,2-dihydro-3-oxa-5,9-diaza-cyclopenta[a]naphthalen-1-ylmethyl)-8-aza-bicyclo[3.2.1]oct-3-yl]-amine], the “MIC M. catarrhalis A894” value is “≦0.031 mg/l”.
Still for that read-out and setting: then `COc1ccc2ncc3c(c2n1)C(CN1C2CCC1CC(NC/C=C/c1cc(F)ccc1F)C2)CO3` (racemic) [Example 21, [(E)-3-(2,5-difluoro-phenyl)-allyl]-[(3-exo)-8-((1RS)-8-methoxy-1,2-dihydro-3-oxa-5,9-diaza-cyclopenta[a]naphthalen-1-ylmethyl)-8-aza-bicyclo[3.2.1]oct-3-yl]-amine], with “≦0.031 mg/l”; and `COc1ccc2ncc3c(c2n1)C(CN1C2CCC1CC(NCc1ccc4c(n1)NC(=O)CO4)C2)CO3` (racemic) [Example 22, 6-{[(3-exo)-8-((1RS)-8-methoxy-1,2-dihydro-3-oxa-5,9-diaza-cyclopenta[a]naphthalen-1-ylmethyl)-8-aza-bicyclo[3.2.1]oct-3-ylamino]-methyl}-4H-pyrido[3,2-b][1,4]oxazin-3-one], with “≦0.031 mg/l”.
On the same count and under the same terms, then `COc1ccc2ncc3c(c2n1)C(CN1[C@@H]2CC[C@H]1C[C@H](NCc1ccc4c(n1)NC(=O)CS4)C2)CO3` (mixture of isomers) [Example 23, 6-{[(3-exo)-8-((1RS)-8-methoxy-1,2-dihydro-3-oxa-5,9-diaza-cyclopenta[a]naphthalen-1-ylmethyl)-8-aza-bicyclo[3.2.1]oct-3-ylamino]-methyl}-4H-pyrido[3,2-b][1,4]thiazin-3-one], with “≦0.031 mg/l”; and `COc1ccc2ncc3c(c2n1)C(CN1CCO[C@@H](CNCc2ccc4c(n2)NC(=O)CO4)C1)CO3` (mixture of isomers) [Example 24, 6-({[(2S)-4-((1RS)-8-methoxy-1,2-dihydro-3-oxa-5,9-diaz-cyclopenta[a]naphthalen-1-ylmethyl)-morpholin-2-ylmethyl]-amino}-methyl) -4H-pyrido[3,2-b][1,4]oxazin-3-one], with “≦0.031 mg/l”; and `COc1ccc2ncc3c(c2n1)C(CN1CCC[C@@H](CNCc2ccc4c(n2)NC(=O)CO4)C1)CO3` (mixture of isomers) [Example 27], with “≦0.031 mg/l”.
Same read-out and setting: with `COc1ccc2ncc3c(c2n1)C(CN1CCC[C@@H](CNCc2cc4c(cn2)OCCO4)C1)CO3` (mixture of isomers) [Example 29] the entry was “≦0.031 mg/l”.
On to `COc1ccc2ncc3c(c2n1)C(CN1CCC[C@@H](CNC/C=C/c2cc(F)ccc2F)C1)CO3` (mixture of isomers) [Example 30], for which the “MIC M. catarrhalis A894” value was “≦0.031 mg/l”.
Same read-out and setting: then `COc1ccc2ncc3c(c2n1)C(CN1CC2C(C1)C2NCc1ccc2c(n1)NC(=O)CO2)CO3` (racemic) [Example 32, 6-{[(1α,5α,6α)-3-((1RS)-8-methoxy-1,2-dihydro-3-oxa-5,9-diaza-cyclopenta[a]naphthalen-1-ylmethyl)-3-aza-bicyclo[3.1.0]hex-6-ylamino]-methyl}-4H-pyrido[3,2-b][1,4]oxazin-3-one], with “≦0.031 mg/l”.

Source of the values: patent publication US8012961B2, “Tricyclic antibiotics” (Actelion Pharmaceutical Ltd., priority 2008, dated 2011).
